Laboratory results published in patent US6057450A, “Derivatives of pyroglutaminic acid preparation process and applications” (Totiam, S.L., priority 1994, dated 2000).

Columns and labels:
[1] = system: human lymphocytes; test: in vitro non-specific lymphoproliferative response (RLP-I) to PHA, human lymphocyte cultures; format: cell-based; conditions: for RLP-I B < A, number of witness models / RLP-I B < A, percentage of witness models / RLP-I B > A, number of witness models / RLP-I B > A, percentage of witness models: Table V, PHA + BRM-BLAS (B) versus PHA (A); for number of cases with RLP-I B > A in 67% of the witness models / percentage of cases with RLP-I B > A in 33-50% of the witness models / percentage of cases with RLP-I B > A in 67% of the witness models / number of cases with RLP-I B > A in 33-50% of the witness models / number of cases with RLP-I B > A in 100% of the witness models / percentage of cases with RLP-I B > A in 100% of the witness models: Table VI, intragroup individual analysis
Procedure: The "in vitro" lymphocyte response has been assessed in samples of circulating and peripheral venous blood from asymptomatic blood donor adults of both sexes. In general, the lymphocyte cultures include in each case six experimental models called witnesses, and incorporate progressive doses between 0.25-6.0 units (20-500 ng) of the BRM-BLAS compounds and PHA. The RLP-I of each one has been morphologically determined and is expressed in absolute values of lymphoblasts/10,000.
Systematically, in all the cases it has been tabulated the RLP-I to the PHA, basal, of the PHA models; to the PHA+BRM-BLAS, of the "witness" models and the maximum individual response of the witness models (RMC), in each case.

[2] = system: Swiss mice; test: single-dose intraperitoneal toxicity in mice; conditions: i.p. single dose; 236 (Cl) 800 mcg/Kg, 278 (Ac) 4.2 mg/Kg, 320 (Ac) 4.8 mg/Kg, respectively
[3] = system: circulating peripheral blood lymphocytes; test: in vivo lymphocyte kinetics / response in asymptomatic rabbits; set-up: species or system New Zealand's albino, giant rabbits
Description: (§1) The pharmacodynamic study to assess the leuko-lymphocyte kinetics has been carried out in New Zealand's albino, giant, female, adult, asymptomatic (healthy) rabbits. The blood samples with EDTA (ethylene-diamino-tetraAcetic acid), non-coagulable, for the periodical weekly controls, have been obtained by aseptic puncture from the marginal vein of the outer ear. The count and the differential cytologic survey of the white series has been routinely performed in a "Coulter" (Coulter Cientifica, S.A., STKs model) differential analyzer, within the two hours following the extraction.
Hereinafter, there is a summary of the most significant results of the preclinical protocols which include different experimental conditions, different BRM-BLAS products and doses which vary in vary of their concentration of the product, frequency and number. […]
This study comprises three concatenated experimental situations. The first one is focused on the vicissitudes of the leuko-lymphocyte kinetics occurred during a pause, "first" moment, that takes place months after several doses, mainly of BRM-BLAS 236 (Cl) compounds and includes 30 individual assessments (6 of the group) days 0 to 39. The second "second" moment, is centered on the successive changes occurred after the administration on the 39th day of an intravenous dose of 8 u/Kg (0.6 mcg/Kg) of the BRM-BLAS 278 (Ac) compounds and includes a total of 25 individual assessments (5 of the group), days 43rd to 68th. The third one, moments "third" to "seventh", analyzes the changes induced after the intravenous administration on the 68th day of 22 u/Kg (1.8 mcg/Kg) of BRM-BLAS 320 (Ac) compounds and includes […] (6 of the group×5 times), days 75th to 287th of the study. The assessment prior to the last dose, the lymphocyte average of which is the lowest of the group during the study, has been selected as the common baseline (100%) for reference of the comparative analysis between the assessments.

[4] = system: circulating peripheral blood leukocytes; test: in vivo leukocyte kinetics / response in asymptomatic rabbits; set-up: species or system New Zealand's albino, giant rabbits; conditions: s.c. 30 u/Kg
Description: as §1
Hereinafter, there is a summary of the most significant results of the preclinical protocols which include different experimental conditions, different BRM-BLAS products and doses which vary in vary of their concentration of the product, frequency and number.
The leuko-lymphocyte mean values of the group run parallelly during the study, in general above the respective basal values before the treatment to which they return in the last two assessments. They reach the higher ones 7, 16 and 20 days after the first, second and third dose, FIG. 12, FIG. 13 and Table VIII (assessments: 3, 8 and 13).
A total number of 225 individual assessments and 45 of the group assessments have been performed, grouped in four evolutive periods moments. The "first" one includes the 40 individual assessments (8 of the group) after the two first doses, days 0 to 43rd; the "second", the 85 (17 of the group) after the third, fourth and fifth doses, days 46th to 147th; the "third", the first 50 (10 of the group) after the sixth, days 153rd to 213th, and the "fourth", the last 50 (10 of the group), days 220th to 282nd, respectively. The assessment of the group prior to the third dose (43rd day), the lymphocyte mean of which has been the lowest during the survey, has been taken as the natural reference baseline for the comparative analysis of punctual and grouped data.
This trail is subsequent to the protocol previously described and corresponds to the "fifth" moment of the global study, FIG. 14 and FIG. 15.
After the subcutaneous administration of a dose of 30 u/Kg (2.1 mcg/Kg) of the BRM-BLAS 278 (Cl) compounds 137 days after the sixth dose of the BRM-BLAS 320 (Ac) compounds, in the presence of high figures of the lymphocyte mean of the group, at the "fourth" moment, such figures were specifically exceeded by the 4th and 5th punctual weekly assessments of the "fifth" moment, 24th (184%) and 31st (180%) days, respectively, FIG. 14. Globally, 28% of the assessment exceed basal values by one or two standard deviations; 57% in three, and the difference is statistically in all of them. The resulting mean of the data gathered for the "fifth" moment with a 158% of the basal values, exceed those of the four previous moments, and the difference is statistically significant compared with those of the "first", "second" and "third", and exceeds that of the "first" in more than one standard deviation, FIG. 15 and (Table IX). […]

[5] = system: patients; conditions: cited from earlier work; for effect on circulating granulocytes: cancer patients in the absence of a myelodepression

Molecule	number of cases with RLP-I B > A in 67% of the witness models [1]	percentage of cases with RLP-I B > A in 33-50% of the witness models [1]	percentage of cases with RLP-I B > A in 67% of the witness models [1]	RLP-I B < A, number of witness models [1]	RLP-I B < A, percentage of witness models [1]	RLP-I B > A, number of witness models [1]	RLP-I B > A, percentage of witness models [1]	number of cases with RLP-I B > A in 33-50% of the witness models [1]	number of cases with RLP-I B > A in 100% of the witness models [1]	percentage of cases with RLP-I B > A in 100% of the witness models [1]	effect on circulating granulocytes [5]	also measured
NC1(C[n+]2ccccc2)CC(C(=O)O)NC1=O (centres unmarked) [BRM-BLAS 236 (Ac), 4-amino-4-(1-pyridiniomethyl) pyroglutamic acid acetate]	12 Num.	100%	82%	–	–	–	–	–	–	–	–	RLP-I B < A, number of witness models ([1]; acetate): 17 Num.; RLP-I B < A, percentage of witness models ([1]; acetate): 19%; RLP-I B > A, number of witness models ([1]; acetate): 73 Num.; RLP-I B > A, percentage of witness models ([1]; acetate): 81%; number of cases with RLP-I B > A in 33-50% of the witness models ([1]; acetate): 15 Num.; number of cases with RLP-I B > A in 100% of the witness models ([1]; acetate): 6 Num.; percentage of cases with RLP-I B > A in 100% of the witness models ([1]; acetate): 40%
CC(=O)N1C(=O)C(N)(C[n+]2ccccc2)CC1C(=O)O (centres unmarked) [BRM-BLAS 278 (Ac), 1-acetyl-4-amino-4-(1-pyridiniomethyl) pyroglutamic acid acetate]	6 Num.	100%	67%	14 Num.	26%	40 Num.	74%	9 Num.	3 Num.	33%	–	tolerance / toxicity, single dose [2]: perfectly tolerated without evidences of toxicity; lymphocyte group mean after low dose ([3]; single i.v. low dose 8 u/Kg (0.6 mcg/Kg), fifth assessment): the group mean in the fifth assessment appears in the basal line of the histogram
CC(=O)N1C(=O)C(N)(C[n+]2ccccc2)CC1C(=O)O (centres unmarked) [BRM-BLAS 278 (Cl), 1-acetyl-4-ammonium-4-(1-pyridiniomethyl) pyroglutamic acid dichloride]	13 Num.	100%	81%	16 Num.	17%	77 Num.	83%	16 Num.	6 Num.	37%	–	animals with leukocyte mean at "fifth" exceeding "first" moment by more than two standard deviations [4]: 40%; assessments with leukocyte mean exceeding basal by one standard deviation ([4]; "fifth" moment): 57%; assessments with statistically significant leukocyte difference ([4]; "fifth" moment): 29%; animals with lymphocyte mean "fifth" versus "first" moment higher than three standard deviations ([3]; s.c. 30 u/Kg): 80%; animals with lymphocyte mean "fifth" versus "first" moment higher than two standard deviations ([3]; s.c. 30 u/Kg): 20%; grouped lymphocyte mean versus basal, "fifth" moment ([3]; s.c. 30 u/Kg, "fifth" moment): 158%; lymphocyte mean versus basal, 24th day ([3]; s.c. dose 30 u/Kg (2.1 mcg/Kg) 137 days after BRM-BLAS 320 (Ac), 24th day, "fifth" moment): 184%; lymphocyte mean versus basal, 31st day ([3]; s.c. dose 30 u/Kg (2.1 mcg/Kg) 137 days after BRM-BLAS 320 (Ac), 31st day, "fifth" moment): 180%
CC(=O)NC1(C[n+]2ccccc2)CC(C(=O)O)N(C(C)=O)C1=O (centres unmarked) [BRM-BLAS 320 (Cl), 1-acetyl-4-acetylamino-4-(1-pyridiniomethyl) pyroglutamic acid chloride]	11 Num.	100%	69%	29 Num.	30%	67 Num.	70%	16 Num.	2 Num.	13%	–	–
rhMG-CSF: recombinant human Macrophage Granulocyte Colony Stimulating Factor	–	–	–	–	–	–	–	–	–	–	neutrophiles and eosinophile	duration of the neutropenia ([5]; administration prior to chemotherapy): notably reduces the duration of the neutropenia; side effects ([5]; human, in vivo): fever, bone ache, pericarditis, hypotension; deaths from sepsis ([5]; patients who received rhMG-CSF): 2 out of 14; systemic bacterial and viral infections ([5]; severe chronic neutropenia or after transplant of bone marrow): drastically decreases systemic bacterial and viral infections
rhG-CSF: recombinant human Granulocyte Colony Stimulating Factor (protein, UniProt P09919 31-207, looked up) Granulocyte …: TPLGPASSLPQSFLLKCLEQVRKIQGDGAALQEKLVSECATYKLCHPEELVLLGHSLGIPWAPLSSCPSQALQLAGCLSQLHSGLFLYQGLLQALEGISPELGPTLDTLQLDVADFATTIWQQMEELGMAPALQPTQGAMPAFASAFQRRAGGVLVASHLQSFLEVSYRVLRHLAQP	–	–	–	–	–	–	–	–	–	–	great increase in the number of circulating (peripheral blood) polymorphonuclear neutrophile	–
